Results from patent publication US8586588B2, “Aryl pyridazinone derivatives and their use as H3 receptor ligands” (Cephalon, Inc., priority 2006, dated 2013).
Where two headings read alike, the source gives them in different places.

Columns and labels:
[1] = molecular target: T1, rat histamine H3 receptor (Rattus norvegicus, UniProt Q9QYN8); experiment: Rat H3 radioligand binding ([3H]-N-alpha-methylhistamine, CHO-A3 cell membranes, SPA)
T1 construct: encoding the entire 445-amino-acid rat histamine H3 receptor; expressed in transfected cells
T1 sequence (Q9QYN8 whole entry): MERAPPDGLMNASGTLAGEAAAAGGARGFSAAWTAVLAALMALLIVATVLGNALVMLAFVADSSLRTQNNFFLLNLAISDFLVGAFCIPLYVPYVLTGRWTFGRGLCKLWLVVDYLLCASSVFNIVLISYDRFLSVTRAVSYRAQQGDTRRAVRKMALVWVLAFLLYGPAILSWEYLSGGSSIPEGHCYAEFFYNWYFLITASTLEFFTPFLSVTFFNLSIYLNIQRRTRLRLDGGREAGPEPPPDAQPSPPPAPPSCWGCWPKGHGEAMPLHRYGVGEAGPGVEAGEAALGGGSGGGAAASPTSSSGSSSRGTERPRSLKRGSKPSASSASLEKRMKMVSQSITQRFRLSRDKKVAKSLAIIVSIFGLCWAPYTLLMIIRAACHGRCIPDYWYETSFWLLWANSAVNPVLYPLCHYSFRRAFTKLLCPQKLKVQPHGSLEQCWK
Method: (§1) This was engineered into the pIRES-neo3 mammalian expression vector, which was stably transfected into the CHO-A3 cell line (Euroscreen, Belgium), followed by clonal selection by limiting dilution. Cells were harvested and cell pellets were frozen (−80° C.). Cell pellets were resuspended in 5 mM Tris-HCl, pH 7.5 with […] and a cocktail of protease inhibitors (Complete Protease Inhibition Tablets, Roche Diagnostics). Cells were disrupted using a polytron cell homogenizer and the suspension was centrifuged at 1000×g for 10 minutes at 4° C. The pellet was discarded and the supernatant centrifuged at 40,000×g for 30 min at 4° C. This membrane pellet was washed in membrane buffer containing 50 mM Tris-HCl, pH 7.5 with 0.6 mM EDTA, 5 mM MgCl2 and protease inhibitors, recentrifuged as above and the final pellet resuspended in membrane buffer plus 250 mM sucrose and frozen at −80° C.
(§2) Membranes were resuspended in 50 mM Tris HCl (pH 7.4), 5 mM MgCl2, 0.1% BSA. The membrane suspensions (10 μg protein per well) were incubated in a 96 well microtiter plate with [^3H]-N-alpha-methylhistamine (approximately 1 nM final concentration), test compounds at various concentrations (0.01 nM-30 μM) and scintillation proximity beads (Perkin Elmer, FlashBlueGPCR Scintillating Beads) in a final volume of 80 μl for 4 hours at room temperature, protected from light. Non-specific binding was determined in the presence of 10 μM clobenpropit. Radioligand bound to receptor, and therefore in proximity to the scintillation beads, was measured using a MicroBeta scintillation counter.

human H3 receptor = molecular target: T2, human H3 receptor (Homo sapiens, UniProt Q9Y5N1); experiment: Human H3 radioligand binding ([3H]-N-alpha-methylhistamine, CHO cell membranes, SPA); details: binding constant as letter class
T2 construct: expressed in transfected cells
T2 sequence (Q9Y5N1 whole entry): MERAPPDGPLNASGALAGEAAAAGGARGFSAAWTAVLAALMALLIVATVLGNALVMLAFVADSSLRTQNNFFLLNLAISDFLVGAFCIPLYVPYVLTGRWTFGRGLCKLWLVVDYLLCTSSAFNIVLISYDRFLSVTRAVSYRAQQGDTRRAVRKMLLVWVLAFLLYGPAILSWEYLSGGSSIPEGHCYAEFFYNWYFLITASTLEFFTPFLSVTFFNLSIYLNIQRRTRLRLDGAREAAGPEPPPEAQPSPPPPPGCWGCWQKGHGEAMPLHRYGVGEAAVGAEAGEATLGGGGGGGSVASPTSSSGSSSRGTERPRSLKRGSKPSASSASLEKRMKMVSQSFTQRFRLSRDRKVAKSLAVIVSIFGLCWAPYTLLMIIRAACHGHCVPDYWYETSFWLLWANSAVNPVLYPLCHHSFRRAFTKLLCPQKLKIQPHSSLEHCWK
Method: as §1, with “Cell” for “This was engineered into the pIRES-neo3 mammalian expression vector, which was stably transfected into the CHO-A3 cell line (Euroscreen, Belgium), followed by clonal selection by limiting dilution. Cells were harvested and cell pellets were frozen (−80° C.). Cell”
as §2

[2] = Table A, binding constant as letter class, read-out: Rat H3 Ki
[3] = Table B, binding constant as letter class, read-out: rat H3 Ki

SMILES | Ki [1, 2] [nM] | Ki (human H3 receptor; Table A) [nM] | Ki [1, 3] [nM] | Ki (human H3 receptor; Table B) [nM] | Ki ([1]; Table B, cell prints a number instead of a letter, read-out: rat H3 Ki) [nM]
Cn1nc(-c2ccc(OCCCN3CCCC3)cc2)c2ccccc2c1=O [Example 52, 2-Methyl-4-[4-(3-pyrrolidin-1-yl-propoxy)-phenyl]-2H-phthalazin-1-one] | 0.1 to 100 | 0.1 to 100 | – | – | –
Cn1nc(-c2ccc(OCCCN3CCCCCC3)cc2)c2ccccc2c1=O [Example 53, 4-[4-(3-Azepan-1-yl-propoxy)-phenyl]-2-methyl-2H-phthalazin-1-one] | 0.1 to 100 | 0.1 to 100 | – | – | –
C[C@@H]1CCCN1CCCOc1ccc(-c2nn(Cc3ccc(Cl)cc3)c(=O)c3ccccc23)cc1 [Example 54, 2-(4-Chloro-benzyl)-4-{4-[3-((R)-2-methyl-pyrrolidin-1-yl)-propoxy]-phenyl}-2H-phthalazin-1-one] | 0.1 to 100 | 0.1 to 100 | – | – | –
O=c1c2ccccc2c(-c2ccc(OCCCN3CCCCC3)cc2)nn1Cc1ccc(Cl)cc1 [Example 55, 2-(4-Chloro-benzyl)-4-[4-(3-piperidin-1-yl-propoxy)-phenyl]-2H-phthalazin-1-one] | 0.1 to 100 | 0.1 to 100 | – | – | –
C[C@@H]1CCCN1CCCOc1ccc(-c2nn(C)c(=O)c3c2CCC3)cc1 [Example 56, 2-Methyl-4-{4-[3-((R)-2-methyl-pyrrolidin-1-yl)-propoxy]-phenyl}-2,5,6,7-tetrahydro-cyclopenta[d]pyridazin-1-one] | 0.1 to 100 | 0.1 to 100 | – | – | –
Cn1nc(-c2ccc(OCCCN3CCCCC3)cc2)c2c(c1=O)CCC2 [Example 57, 2-Methyl-4-[4-(3-piperidin-1-yl-propoxy)-phenyl]-2,5,6,7-tetrahydro-cyclopenta[d]pyridazin-1-one] | 0.1 to 100 | 0.1 to 100 | – | – | –
C[C@@H]1CCCN1CCCOc1ccc(C2=NN(C)C(=O)C3CCCC23)cc1 (stereo partly drawn) [Example 58, 2-Methyl-4-{4-[3-((R)-2-methyl-pyrrolidin-1-yl)-propoxy]-phenyl}-2,4a,5,6,7,7a-hexahydro-cyclopenta[d]pyridazin-1-one] | 0.1 to 100 | 0.1 to 100 | – | – | –
CN1N=C(c2ccc(OCCCN3CCCCC3)cc2)C2CCCC2C1=O (stereo not shown) [Example 59, 2-Methyl-4-[4-(3-piperidin-1-yl-propoxy)-phenyl]-2,4a,5,6,7,7a-hexahydro-cyclopenta[d]pyridazin-1-one] | 0.1 to 100 | 0.1 to 100 | – | – | –
C[C@@H]1CCCN1CCCOc1ccc(-c2nn(C)c(=O)c3c2CCCC3)cc1 [Example 60, 2-Methyl-4-{4-[3-((R)-2-methyl-pyrrolidin-1-yl)-propoxy]-phenyl}-5,6,7,8-tetrahydro-2H-phthalazin-1-one] | 0.1 to 100 | 0.1 to 100 | – | – | –
Cn1nc(-c2ccc(OCCCN3CCCCC3)cc2)c2c(c1=O)CCCC2 [Example 61] | 0.1 to 100 | 0.1 to 100 | – | – | –
Cn1nc(-c2ccc(OCC3CCNCC3)cc2)c2ccccc2c1=O [Example 63, 2-Methyl-4-[4-(piperidin-4-ylmethoxy)-phenyl]-2H-phthalazin-1-one] | > 1000 | > 1000 | – | – | –
C[C@@H]1CCCN1CCCOc1ccc2c(c1)CCc1cc(=O)n(C)nc1-2 [Example 75, 2-Methyl-8-[3-((R)-2-methyl-pyrrolidin-1-yl)-propoxy]-5,6-dihydro-2H-benzo[h]cinnolin-3-one] | 0.1 to 100 | 0.1 to 100 | – | – | –
C[C@@H]1CCCN1CCCOc1ccc2c(c1)CCc1cc(=O)n(-c3ccccc3)nc1-2 [Example 76, 8-[3-((R)-2-Methyl-pyrrolidin-1-yl)-propoxy]-2-phenyl-5,6-dihydro-2H-benzo[h]cinnolin-3-one] | 0.1 to 100 | 0.1 to 100 | – | – | –
O=c1cc2c(nn1Cc1ccccc1)-c1ccc(OCCCN3CCCCC3)cc1CC2 [Example 77, 2-Benzyl-8-(3-piperidin-1-yl-propoxy)-5,6-dihydro-2H-benzo[h]cinnolin-3-one] | 101 to 500 | 0.1 to 100 | – | – | –
CC(C)n1nc2c(cc1=O)CCc1cc(OCCCN3CCCCC3)ccc1-2 [Example 78, 2-Isopropyl-8-(3-piperidin-1-yl-propoxy)-5,6-dihydro-2H-benzo[h]cinnolin-3-one] | 0.1 to 100 | 0.1 to 100 | – | – | –
C[C@@H]1CCCN1CCCOc1ccc(-c2ccc(=O)n(-c3ccccc3)n2)cc1F [Example 81, 6-{3-Fluoro-4-[3-((R)-2-methyl-pyrrolidin-1-yl)-propoxy]-phenyl}-2-phenyl-2H-pyridazin-3-one] | 0.1 to 100 | 0.1 to 100 | 0.1 to 100 | 0.1 to 100 | –
Cc1n[nH]c(=O)cc1-c1ccc(OCCCN2CCC[C@H]2C)cc1 [Example 88, 6-Methyl-5-{4-[3-((R)-2-methyl-pyrrolidin-1-yl)-propoxy]-phenyl}-2H-pyridazin-3-one] | – | – | 0.1 to 100 | 0.1 to 100 | –
Cc1n[nH]c(=O)cc1-c1ccc(OCCCN2CCCCC2)cc1 [Example 89, 6-Methyl-5-[4-(3-piperidin-1-yl-propoxy)-phenyl]-2H-pyridazin-3-one] | – | – | 0.1 to 100 | 0.1 to 100 | –
Cc1n[nH]c(=O)cc1-c1ccc(OCCCN2CCCCCC2)cc1 [Example 90, 5-[4-(3-Azepan-1-yl-propoxy)-phenyl]-6-methyl-2H-pyridazin-3-one] | – | – | – | 0.1 to 100 | 5

Now from value to compound:

Ki [1, 2] [nM] | Ki (human H3 receptor; Table A) [nM] | Ki [1, 3] [nM] | Ki (human H3 receptor; Table B) [nM] | Ki ([1]; Table B, cell prints a number instead of a letter, read-out: rat H3 Ki) [nM] | SMILES
101 to 500 | 0.1 to 100 | – | – | – | Cn1nc(-c2ccc(OCC3CCN(C4CCC4)CC3)cc2)c2ccccc2c1=O [Example 64, 4-[4-(1-Cyclobutyl-piperidin-4-ylmethoxy)-phenyl]-2-methyl-2H-phthalazin-1-one]
> 1000 | > 1000 | – | – | – | Cn1nc(-c2ccc(OCC3CCNCC3)cc2)ccc1=O [Example 66, 2-Methyl-6-[4-(piperidin-4-ylmethoxy)-phenyl]-2H-pyridazin-3-one]
> 1000 | 101 to 500 | – | – | – | Cn1nc(-c2ccc(OCC3CCN(C4CCC4)CC3)cc2)ccc1=O [Example 67, 6-[4-(1-Cyclobutyl-piperidin-4-ylmethoxy)-phenyl]-2-methyl-2H-pyridazin-3-one]
101 to 500 | 0.1 to 100 | – | – | – | CC(C)N1CCC(COc2ccc(-c3ccc(=O)n(C)n3)cc2)CC1 [Example 68, 6-[4-(1-Isopropyl-piperidin-4-ylmethoxy)-phenyl]-2-methyl-2H-pyridazin-3-one]
> 1000 | 101 to 500 | – | – | – | Cn1nc(-c2ccc(OCC3CCN(CC4CC4)CC3)cc2)ccc1=O [Example 69, 6-[4-(1-Cyclopropylmethyl-piperidin-4-ylmethoxy)-phenyl]-2-methyl-2H-pyridazin-3-one]
101 to 500 | 101 to 500 | – | – | – | Cn1nc(-c2ccc(OCC3CCN(C4CCCC4)CC3)cc2)ccc1=O [Example 70, 6-[4-(1-Cyclopentyl-piperidin-4-ylmethoxy)-phenyl]-2-methyl-2H-pyridazin-3-one]
501 to 1000 | 101 to 500 | – | – | – | CN1CCC(COc2ccc(-c3ccc(=O)n(C)n3)cc2)CC1 [Example 71, 2-Methyl-6-[4-(1-methyl-piperidin-4-ylmethoxy)-phenyl]-2H-pyridazin-3-one]
0.1 to 100 | 0.1 to 100 | – | – | – | CC(C)N1CCC(Oc2ccc(-c3ccc(=O)n(C)n3)cc2)CC1 [Example 72]
> 1000 | 501 to 1000 | – | – | – | Cn1nc(-c2ccc(OC3CCNCC3)cc2)ccc1=O [Example 73]
0.1 to 100 | 0.1 to 100 | – | – | – | Cn1nc(-c2ccc(OC3CCN(C4CCC4)CC3)cc2)ccc1=O [Example 74]
– | – | 0.1 to 100 | 0.1 to 100 | – | C[C@@H](COc1ccc(-c2ccc(=O)n(C)n2)cc1)CN1CCC[C@H]1C [Example 82, 2-Methyl-6-{4-[(R)-2-methyl-3-((R)-2-methyl-pyrrolidin-1-yl)-propoxy]-phenyl}-2H-pyridazin-3-one]
– | – | 0.1 to 100 | 0.1 to 100 | – | C[C@@H]1CCCN1CCCOc1ccc(-c2ccc(=O)n(C)n2)cc1Cl [Example 85, 6-{3-Chloro-4-[3-((R)-2-methyl-pyrrolidin-1-yl)-propoxy]-phenyl}-2-methyl-2H-pyridazin-3-one]
– | – | 0.1 to 100 | 0.1 to 100 | – | Cc1nn(C)c(=O)cc1-c1ccc(OCCCN2CCC[C@H]2C)cc1 [Example 86, 2,6-Dimethyl-5-{4-[3-((R)-2-methyl-pyrrolidin-1-yl)-propoxy]-phenyl}-2H-pyridazin-3-one]
– | – | 0.1 to 100 | 0.1 to 100 | – | Cc1nn(C)c(=O)cc1-c1ccc(OCCCN2CCCCC2)cc1 [Example 87, 2,6-Dimethyl-5-[4-(3-piperidin-1-yl-propoxy)-phenyl]-2H-pyridazin-3-one]
– | – | 0.1 to 100 | 0.1 to 100 | – | C[C@@H]1CCCN1CCCOc1ccc(-c2cnn(C)c(=O)c2)cc1 [Example 91, 2-Methyl-5-{4-[3-((R)-2-methyl-pyrrolidin-1-yl)-propoxy]-phenyl}-2H-pyridazin-3-one]
